Experiments:
[1] = tested on: low-birth-weight suckling piglets; assay: Arginine supplementation: growth performance of low-birth-weight suckling piglets; format: in vivo; conditions: 0.04% arginine in feed vs without
Excerpt: Three-day-old suckling piglets with low birth weight were used as experimental animals. They were randomly divided into two treatments, fed with 0.04% and without arginine feed. Each treatment had 8 replicates, and each replicate had 1 piglet. The test period was 21 days to investigate the growth performance of piglets.

[2] = tested on: low-birth-weight suckling piglets; assay: Arginine supplementation: serum antioxidant enzyme activity and MDA content; format: in vivo; conditions: 0.04% arginine in feed vs without
Excerpt: Three-day-old suckling piglets with low birth weight were used as experimental animals. They were randomly divided into two treatments, fed with 0.04% and without arginine feed. Each treatment had 8 replicates, and each replicate had 1 piglet. The test period was 21 days. After the test, the piglet serum was collected to investigate the antioxidant capacity of the piglet serum.

N=C(N)NCCC[C@H](N)C(=O)O [Arginine Group, arginine]
significantly improve: daily gain of weak piglets (in words) [1] | feed intake of weak piglets (in words) [1] | antioxidant capacity of weak piglets (in words) [2]
